# Assay results published in EP0417165B1, “POLYPEPTIDE COMPOUNDS HAVING GROWTH HORMONE RELEASING ACTIVITY” (POLYGEN HOLDING CORPORATION, priority 1988, dated 1994).
# Non-standard residues stand in square brackets, D forms with d. Residues, ends and D or L forms follow the SMILES beside them.
# System: GH Release
# Test: In vivo GH release in pentobarbital anesthetized rats (serum GH by RIA)
# Parameters: species or system Sprague-Pawley rats
# Settings: sacrificed 10 minutes after injection, mean ± SEM, six rats
# Protocol: Immature female Sprague-Pawley rats were obtained from the Charles River Laboratories (Wilmington, MA). After arrival they were housed at 25° C with a 14:10 hr light:dark cycle. Water and Purina rat chow were available ad libitum. Pups were kept with their mothers until 21 days of age.
# Normal saline with 0.1% gelatin was the vehicle for intravenous (i.v.) injections of the peptides. The anesthetized rats, weighing 55-65 grams, were injected i.v. with the quantity of growth hormone releasing compounds indicated in Table 3. Injection was made as a 0.1 mL solution into the jugular vein.
# All animals were sacrificed by guillotine 10 minutes after the final test injection (see Table 3). Trunk blood for the determination of blood GH levels was collected following decapitation. After allowing the blood to clot, it was centrifuged and the serum was separated from the clot. Serum was kept frozen until the day of sampling for radioimmunoassay (RIA) determination of growth hormone levels according to the following procedure, as developed by the National Institute of Arthritis, Diabetes and Digestive and Kidney Diseases (NIADDK).
# Reagents are generally added to the RIA analysis tubes at a single sitting, at refrigerator temperature (about 4°C) in the following sequence: • (a) buffer, • (b) "cold" (i.e., non-radioactive) standard or unknown serum sample to be analyzed, • (c) radio-iodinated growth hormone antigen, and • (d) growth hormone antiserum. Reagent addition is generally carried out so that there is achieved a final RIA tube dilution of about 1:30,000 (antiserum to total liquid volume; vol:vol).
# The mixed reagents are then typically incubated at room temperature (about 25°C) for about 24 hours prior to addition of a second antibody (e.g., goat or rabbit anti-monkey gamma globulin serum) which binds to and causes precipitation of the complexed growth hormone antiserum. Precipitated contents of the RIA tubes are then analyzed for the number of counts in a specified period of time in a gamma scintillation counter. A standard curve is prepared by plotting number of radioactive counts versus growth hormone (GH) level. GH levels of unknowns are then determined by reference to the standard curve.
# Serum GH was measured by RIA with reagents provided by the National Hormone and Pituitary Program.
# Serum levels in Table 3 are recorded in ng/mL in terms of the rat GH standard of 0.61 International Units/mg (IU/mg). Data is recorded as the mean +/-standard error of the mean (SEM). Statistical analysis was performed with Student's t-test. In Table 3 the results shown are the average of studies with six rats.
# [1] = Total Dose 0.3 µg i.v., 26 day old female rats, study with Control GH 142±43
# [2] = Total Dose 0.3 µg i.v., 26 day old female rats, study with Control GH 208±47
# [3] = Total Dose 1.0 µg i.v., 26 day old female rats, study with Control GH 142±43
# [4] = Total Dose 1.0 µg i.v., 26 day old female rats, study with Control GH 208±47
# [5] = Total Dose 1.0 µg i.v., 29 day old female rats, study with Control GH 108±17
# [6] = Total Dose 3.0 µg i.v., 26 day old female rats, study with Control GH 142±43
# [7] = Total Dose 3.0 µg i.v., 26 day old female rats, study with Control GH 208±47
# [8] = Total Dose 3.0 µg i.v., 29 day old female rats, study with Control GH 108±17
structure (smiles),measurement,setting,value
C[C@H](NC(=O)[C@@H](N)Cc1c[nH]cn1)C(=O)N[C@H](Cc1c[nH]c2ccccc12)C(=O)N[C@@H](C)C(=O)N[C@@H](Cc1c[nH]c2ccccc12)C(=O)N[C@H](Cc1ccccc1)C(=O)N[C@@H](CCCCN)C(N)=O [His-Ala-DTrp-Ala-Trp-DPhe-Lys-NH₂] (H-HA[dW]AW[dF]K-NH2),GH Released by Compound in Column A,"Total Dose 0.3 µg i.v., 26 day old female rats, study with Control GH 151±16",261 ± 32 ng/mL
same,GH Released by Compound in Column A,"Total Dose 1.0 µg i.v., 26 day old female rats, study with Control GH 151±16",830 ± 103 ng/mL
same,GH Released by Compound in Column A,"Total Dose 3.0 µg i.v., 26 day old female rats, study with Control GH 111±25",2588 ± 341 ng/mL
same,GH Released by Compound in Column A,"Total Dose 3.0 µg i.v., 26 day old female rats, study with Control GH 151±16",2365 ± 478 ng/mL
C[C@H](N)C(=O)N[C@H](Cc1c[nH]c2ccccc12)C(=O)N[C@@H](C)C(=O)N[C@@H](Cc1c[nH]c2ccccc12)C(=O)N[C@H](Cc1ccccc1)C(=O)N[C@@H](CCCCN)C(N)=O [Ala-DTrp-Ala-Trp-DPhe-Lys-NH₂] (H-A[dW]AW[dF]K-NH2),GH Released by Compound in Column A,[1],303 ± 41 ng/mL
same,GH Released by Compound in Column A,[2],265 ± 96 ng/mL
same,GH Released by Compound in Column A,[3],729 ± 115 ng/mL
same,GH Released by Compound in Column A,[4],754 ± 164 ng/mL
same,GH Released by Compound in Column A,[5],745 ± 68 ng/mL
same,GH Released by Compound in Column A,[6],1164 ± 215 ng/mL
same,GH Released by Compound in Column A,[7],1449 ± 238 ng/mL
same,GH Released by Compound in Column A,[8],1673 ± 352 ng/mL
same,GH Released by Compound in Column A,"Total Dose 10.0 µg i.v., 26 day old female rats, study with Control GH 142±43",2353 ± 149 ng/mL
same,GH Released by Compound in Column A,"Total Dose 10.0 µg i.v., 29 day old female rats, study with Control GH 108±17",2388 ± 269 ng/mL
same,GH Released by Compound in Column A,"Total Dose 30.0 µg i.v., 26 day old female rats, study with Control GH 142±43",2484 ± 110 ng/mL
C[C@H](NC(=O)[C@@H](Cc1c[nH]c2ccccc12)NC(=O)[C@@H](N)Cc1c[nH]cn1)C(=O)N[C@@H](Cc1c[nH]c2ccccc12)C(=O)N[C@H](Cc1ccccc1)C(=O)N[C@@H](CCCCN)C(N)=O [His-DTrp-Ala-Trp-DPhe-Lys-NH₂] (H-H[dW]AW[dF]K-NH2),GH Released by Compound in Column A,[1],533 ± 77 ng/mL
same,GH Released by Compound in Column A,[2],660 ± 128 ng/mL
same,GH Released by Compound in Column A,"Total Dose 0.3 µg i.v., 29 day old female rats, study with Control GH 108±17",764 ± 62 ng/mL
same,GH Released by Compound in Column A,[3],1656 ± 213 ng/mL
same,GH Released by Compound in Column A,[4],1669 ± 257 ng/mL
same,GH Released by Compound in Column A,[5],2614 ± 349 ng/mL
same,GH Released by Compound in Column A,[6],2653 ± 378 ng/mL
same,GH Released by Compound in Column A,[7],3078 ± 629 ng/mL
same,GH Released by Compound in Column A,[8],3215 ± 547 ng/mL
